Paper PMC9031227, “Structure-Activity Relationship Investigations of Novel Constrained Chimeric Peptidomimetics of SOCS3 Protein Targeting JAK2” (Pharmaceuticals, 2022)
“Also recorded” adds a separate entry of the source. Where a SMILES comes first, the peptide text is derived from it. Bridges are numbered along the chain shown (N, C = ends). [ ]: non-standard residue; d: D form. R8 = C=CCCCCCC[C@@](C)(N)C(=O)O; S5 = C=CCCC[C@](C)(N)C(=O)O; βAla = NCCC(=O)O

What was measured:
[1] = Serum stability in fetal bovine serum; type: in vitro ADME; conditions: 37 °C; for improvement of stability to proteases after 24 h: 25% FBS, 24 h of analysis, compared with the linear peptide; for metabolised at 3 h, 500 µM: read-out: degraded after 3 h of incubation
Procedure: KIRCONG analogues (~1 mg/mL, 500 μM on average), were incubated with fetal bovine serum (FBS) at 25% (w/v) at 37 °C as previously described. At the following time points: 0, 3, 17, 20, 23 and 42 h, 50 µL aliquots of the solutions were mixed with 50 µL of 15% trichloroacetic acid (TCA) to allow the precipitation of serum proteins, they were stored at −20 °C for at least 15 min. After centrifugation (13,000 rpm for 15 min) the supernatants were recovered. Samples were analyzed by RP-HPLC on a HPLC LC-4000 series (Jasco) equipped with UV detector using a C18-Kinetek column from Phenomenex (Milan, Italy), by employing a gradient from 5 to 70% of B (acetonitrile 0.1% TFA) versus A (water 0.1% TFA) in 20 min. Peptide compounds were detected by recording the absorbance at 210 nm and percentages were quantified by assuming 100% their peak areas at t = 0. All stability tests were performed at least in triplicates and reported data are averaged values.
To evaluate if introduced chemical modifications in KIRCONG analogues influence their stabilities to proteolytic degradation, pure compounds were incubated with fetal bovine serum (FBS) and the decrease of chromatographic peaks was followed during time In Figure 4, the area percentages of new derivatives of KIRCONG chim versus time are reported. After 3 h of incubation, KIRCONG chim is degraded by 30% while KIRCONG disulfide of 20% and others less than 10%.
Figure 4 Serum stability assay of KIRCONG chim derivatives. The serum stability was evaluated by incubation in 25% FBS for 42 h. Residual peptide amount is expressed as the percentage of the initial amount versus time.

[2] = target: T1, His-tagged Catalytic Domain of JAK2 (residues 826–1132) (Homo sapiens, UniProt O60674); assay: MicroScale Thermophoresis (MST) binding to JAK2 catalytic domain; conditions: RED-tris-NTA labelled His-JAK2 catalytic domain, 25 °C, 50 mM Tris-HCl, 150 mM NaCl, 0.05% Brij35, 1 mM DTT, 10% glycerol, 15% TFE, pH 7.5, Langmuir isotherm fit
T1 construct: His-tagged Catalytic Domain of JAK2 (residues 826–1132); purchased Carna Biosciences
T1 sequence (O60674 826-1132): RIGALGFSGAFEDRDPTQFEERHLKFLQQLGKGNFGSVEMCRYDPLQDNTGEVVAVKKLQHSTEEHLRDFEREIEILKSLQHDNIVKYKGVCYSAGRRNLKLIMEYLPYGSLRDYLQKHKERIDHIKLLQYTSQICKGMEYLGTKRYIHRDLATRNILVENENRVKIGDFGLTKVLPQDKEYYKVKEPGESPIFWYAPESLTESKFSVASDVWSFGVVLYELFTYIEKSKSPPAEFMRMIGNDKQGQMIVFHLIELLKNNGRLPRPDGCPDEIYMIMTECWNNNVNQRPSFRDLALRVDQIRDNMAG
Procedure: MST experiments were carried out with a Monolith NT 115 system (NanoTemper Technologies, München, Germania) equipped with 40% LED and 40% IR-laser power. […] The protein concentration was adjusted to 200 nM in labeling buffer (Nano Temper Technologies), while the dye concentration was set to 100 nM. Equal volumes (100 μL) of protein and fluorescent dye solutions were mixed and incubated at room temperature in the dark for 30 min. KIRCONG chim analogues were used in the following concentrations: KIRCONG amide 459 μM, KIRCONG disulfide 470 μM, KIRCONG i/i+5 525 μM, and KIRCONG i/i+7 585 μM in labeling buffer. Standard capillaries were employed for analysis, at 25 °C in 50 mM Tris-HCl, 150 mM NaCl, 0.05% Brij35, 1 mM DTT, 10% glycerol, 15% TFE buffer at pH 7.5, as already reported. The equation implemented by the software MO-S002 MO Affinity Analysis, used for fitting data at different concentrations, is based on Langmuir binding isotherm.
To evaluate the ability of KIRCONG analogues to recognize JAK2 catalytic domain, in vitro MST experiments were carried out (Figure 5), keeping JAK2 concentration constant and increasing ligands’ concentrations.

[3] = Solubility observations in TFE/aqueous mixtures (CD and NMR samples); type: physicochemical
Procedure: CD spectroscopy experiments were carried out by employing a Jasco J-815 spectropolarimeter (JASCO, Tokyo, Japan), at room temperature in the spectral range 190–260 nm and spectra are averaged over two scans, to which blanks were subtracted. CD signals were converted to mean residue ellipticity with deg* cm^2*dmol^−1*res^−1 as units. Scan speed value was 20 nm/min, band width 2.0 nm, resolution 0.2 nm, sensitivity 50 mdeg and response 4 s. Samples were prepared by dilution of freshly prepared stock solutions in 100% TFE (2,2,2-Trifluoroethanol) (1 mM on average). In the CD samples compound concentrations were 100 μM. Spectra were acquired in a quartz cuvette with a path-length of 0.1 cm in mixtures TFE/phosphate buffer, 10 mM at pH 7.4 [52].
NMR spectra of KIRCONG i/i+5 and KIRCONG i/i+7 stapled peptides were registered at 25 °C on a Varian Unity Inova 600 MHz spectrometer provided with a cold probe. […] NMR spectra for KIRCONG i/i+7 were recorded in H2O/TFE 60/40 v/v (peptide concentration 411 μM, pH 4.65). […] To conduct NMR structural analyses the following 2D [^1H, ^1H] experiments were recorded: TOCSY (Total Correlation Spectroscopy), NOESY (Nuclear Overhauser Enhancement Spectroscopy), ROESY (Rotating Frame Overhauser Enhancement Spectroscopy) and DQFCOSY (Double Quantum-Filtered Correlated Spectroscopy). […]

[4] = 25% (w/v) fetal bovine serum, 25% (w/v) FBS, peptide ~1 mg/mL (500 µM on average), TCA precipitation, RP-HPLC C18, UV 210 nm, peak area vs t = 0, mean of at least triplicates

| SMILES | Kd [2] [µM] | metabolised at 3 h, 500 µM [1, 4] [%] | improvement of stability to proteases after 24 h [1] | KD [2] | further results |
| --- | --- | --- | --- | --- | --- |
| CC(C)C[C@@H]1NC(=O)[C@](C)(NC(=O)[C@H](Cc2ccc(O)cc2)NC(=O)[C@H](CCC(=O)O)NC(=O)[C@H](CO)NC(=O)[C@H](CCCCN)NC(=O)[C@H](CO)NC(=O)[C@H](CO)NC(=O)[C@@H](N)Cc2ccccc2)CCCCCC/C=C/CCC[C@@](C)(C(=O)N[C@H](C(=O)N[C@H](C(=O)NCC(=O)O)[C@@H](C)O)C(C)C)NC(=O)[C@H](CO)NC(=O)[C@H](Cc2c[nH]c3ccccc23)NC(=O)[C@H](Cc2ccc(O)cc2)NC(=O)[C@H](Cc2ccccc2)NC(=O)CCNC1=O [KIRCONG i/i+7] (H-FSSKSEY[R8]L[βAla]FYWS[S5]VTG-OH; staple (E) 8-15) |  |  |  | did not allow to obtain KD values; also recorded: No binding | solubility at NMR concentration in 15% TFE ([3]; H2O/TFE 85/15 v/v, NMR peptide concentration 411 µM): poorly soluble; solubility in TFE/phosphate buffer (CD sample) ([3]; TFE/phosphate buffer 10 mM pH 7.4, CD sample concentration 100 µM, diluted from 100% TFE stock): not soluble |
| CC(C)C[C@H](NC(=O)[C@H](CCC(N)=O)NC(=O)[C@H](Cc1ccc(O)cc1)NC(=O)[C@H](CCC(=O)O)NC(=O)[C@H](CO)NC(=O)[C@H](CCCCN)NC(=O)[C@H](CO)NC(=O)[C@H](CO)NC(=O)[C@@H](N)Cc1ccccc1)C(=O)NCCC(=O)N[C@@]1(C)CCCC=CCCC[C@@](C)(C(=O)N[C@H](C(=O)N[C@H](C(=O)NCC(=O)O)[C@@H](C)O)C(C)C)NC(=O)[C@H](CO)NC(=O)[C@H](Cc2c[nH]c3ccccc23)NC(=O)[C@H](Cc2ccc(O)cc2)NC(=O)[C@H](Cc2ccccc2)NC1=O [KIRCONG i/i+5] (H-FSSKSEYQL[βAla][S5]FYWS[S5]VTG-OH; staple 11-16) |  |  |  | did not allow to obtain KD values; also recorded: No binding | remaining at 42 h, 500 µM ([1]; 25% (w/v) fetal bovine serum, 25% (w/v) FBS, peptide ~1 mg/mL (500 µM on average), 42 h, TCA precipitation, RP-HPLC C18, UV 210 nm, peak area vs t = 0, mean of at least triplicates, read-out: residual concentration after 42 h): 85% |
| CC(=O)N[C@@H](CCCCN)C(=O)NCCC(=O)N[C@@H](Cc1ccccc1)C(=O)N[C@@H](CO)C(=O)N[C@@H](CO)C(=O)N[C@@H](CCCCN)C(=O)N[C@@H](CO)C(=O)N[C@@H](CCC(=O)O)C(=O)N[C@@H](Cc1ccc(O)cc1)C(=O)N[C@@H](CCC(N)=O)C(=O)N[C@@H](CC(C)C)C(=O)NCCC(=O)NCCC(=O)N[C@@H](Cc1ccccc1)C(=O)N[C@@H](Cc1ccc(O)cc1)C(=O)N[C@@H](Cc1c[nH]c2ccccc12)C(=O)N[C@@H](CO)C(=O)N[C@@H](C)C(=O)N[C@H](C(=O)N[C@H](C(N)=O)[C@@H](C)O)C(C)C [KIRCONG chim, reference compound] (Ac-K[βAla]FSSKSEYQL[βAla][βAla]FYWSAVT-NH2) |  | 30 |  |  | residual concentration after 42 h ([1]; 25% (w/v) FBS, peptide ~1 mg/mL (500 µM on average), 42 h, TCA precipitation, RP-HPLC C18, UV 210 nm, peak area vs t = 0, mean of at least triplicates): completely degraded |

More lines, main results first:

| Kd [2] [µM] | metabolised at 3 h, 500 µM [1, 4] [%] | SMILES | improvement of stability to proteases after 24 h [1] | KD [2] | further results |
| --- | --- | --- | --- | --- | --- |
| 200 |  | CC(C)C[C@@H]1NC(=O)[C@H](CCC(N)=O)NC(=O)[C@H](Cc2ccc(O)cc2)NC(=O)[C@H](CCC(=O)O)NC(=O)[C@H](CO)NC(=O)[C@H](CCCCN)NC(=O)[C@H](CO)NC(=O)[C@H](CO)NC(=O)[C@H](Cc2ccccc2)NC(=O)CCNC(=O)[C@@H](N)CCCCNC(=O)CC[C@@H](C(=O)NCC(=O)O)NC(=O)[C@H]([C@@H](C)O)NC(=O)[C@H](C(C)C)NC(=O)[C@H](C)NC(=O)[C@H](CO)NC(=O)[C@H](Cc2c[nH]c3ccccc23)NC(=O)[C@H](Cc2ccc(O)cc2)NC(=O)[C@H](Cc2ccccc2)NC(=O)CCNC(=O)CCNC1=O [KIRCONG amide] (H-K[βAla]FSSKSEYQL[βAla][βAla]FYWSAVTEG-OH; lactam 1-21) | do not produce a significant improvement of stability |  |  |
| 600 | 20 | CC(C)C[C@@H]1NC(=O)[C@H](CCC(N)=O)NC(=O)[C@H](Cc2ccc(O)cc2)NC(=O)[C@H](CCC(=O)O)NC(=O)[C@H](CO)NC(=O)[C@H](CCCCN)NC(=O)[C@H](CO)NC(=O)[C@H](CO)NC(=O)[C@H](Cc2ccccc2)NC(=O)CCNC(=O)[C@@H](N)CSSC[C@@H](C(=O)NCC(=O)O)NC(=O)[C@H]([C@@H](C)O)NC(=O)[C@H](C(C)C)NC(=O)[C@H](C)NC(=O)[C@H](CO)NC(=O)[C@H](Cc2c[nH]c3ccccc23)NC(=O)[C@H](Cc2ccc(O)cc2)NC(=O)[C@H](Cc2ccccc2)NC(=O)CCNC(=O)CCNC1=O [KIRCONG disulfide] (H-C[βAla]FSSKSEYQL[βAla][βAla]FYWSAVTCG-OH; disulfide 1-21) | do not produce a significant improvement of stability |  |  |
